Results taken from the kinase profiling compilation of Christmann-Franck et al. (2016).

Columns and labels:
Experiment in all cases: KINOMEscan competition binding
Conditions in all cases: compound 10.0 µM
[1] = molecular target: HIPK3 (human) (UniProt Q9H422)
[2] = molecular target: SYK (human) (UniProt P43405)
[3] = molecular target: CSNK1G1 (human) (UniProt Q9HCP0)
[4] = molecular target: CSNK1E (human) (UniProt P49674)
[5] = molecular target: CIT (human) (UniProt O14578)
[6] = molecular target: MARK3 (human) (UniProt P27448)
[7] = molecular target: PIK3CD (human) (UniProt O00329)
[8] = molecular target: MAP2K1 (human) (UniProt Q02750)
[9] = molecular target: PKN2 (human) (UniProt Q16513)
[10] = molecular target: ACVR2B (human) (UniProt Q13705)
[11] = molecular target: BMP2K (human) (UniProt Q9NSY1)
[12] = molecular target: SIK1 (human) (UniProt P57059)
[13] = molecular target: IRAK3 (human) (UniProt Q9Y616)
[14] = molecular target: MAPK11 (human) (UniProt Q15759)
[15] = molecular target: CDK4 CCND3 (human) (UniProt P11802+P30281)
[16] = molecular target: TLK2 (human) (UniProt Q86UE8)
[17] = molecular target: ACVRL1 (human) (UniProt P37023)
[18] = system: LRRK2 (human), Q5S007 [G2019S]
[19] = system: EGFR (human), P00533 [L858R]
[20] = molecular target: ABL2 (human) (UniProt P42684)
[21] = molecular target: CDK2 (human) (UniProt P24941)
[22] = molecular target: GAK (human) (UniProt O14976)
[23] = molecular target: SIK2 (human) (UniProt Q9H0K1)
[24] = molecular target: EPHA3 (human) (UniProt P29320)
[25] = molecular target: ANKK1 (human) (UniProt Q8NFD2)
[26] = molecular target: MAST1 (human) (UniProt Q9Y2H9)
[27] = molecular target: CDK5 (human) (UniProt Q00535)
[28] = molecular target: NEK1 (human) (UniProt Q96PY6)
[29] = molecular target: PIM2 (human) (UniProt Q9P1W9)
[30] = molecular target: PRPF4B (human) (UniProt Q13523)
[31] = molecular target: ROCK2 (human) (UniProt O75116)
[32] = molecular target: VRK2 (human) (UniProt Q86Y07)
[33] = molecular target: MYLK4 (human) (UniProt Q86YV6)
[34] = molecular target: MAPK7 (human) (UniProt Q13164)
[35] = molecular target: STK35 (human) (UniProt Q8TDR2)
[36] = molecular target: MUSK (human) (UniProt O15146)
[37] = molecular target: MAP2K4 (human) (UniProt P45985)
[38] = molecular target: CSNK1A1L (human) (UniProt Q8N752)
[39] = molecular target: AXL (human) (UniProt P30530)
[40] = molecular target: CSNK2A1 (human) (UniProt P68400)
[41] = system: BRAF (human), P15056 [V600E]

Sequence of ACVRL1 (human) (P37023 whole entry, looked up): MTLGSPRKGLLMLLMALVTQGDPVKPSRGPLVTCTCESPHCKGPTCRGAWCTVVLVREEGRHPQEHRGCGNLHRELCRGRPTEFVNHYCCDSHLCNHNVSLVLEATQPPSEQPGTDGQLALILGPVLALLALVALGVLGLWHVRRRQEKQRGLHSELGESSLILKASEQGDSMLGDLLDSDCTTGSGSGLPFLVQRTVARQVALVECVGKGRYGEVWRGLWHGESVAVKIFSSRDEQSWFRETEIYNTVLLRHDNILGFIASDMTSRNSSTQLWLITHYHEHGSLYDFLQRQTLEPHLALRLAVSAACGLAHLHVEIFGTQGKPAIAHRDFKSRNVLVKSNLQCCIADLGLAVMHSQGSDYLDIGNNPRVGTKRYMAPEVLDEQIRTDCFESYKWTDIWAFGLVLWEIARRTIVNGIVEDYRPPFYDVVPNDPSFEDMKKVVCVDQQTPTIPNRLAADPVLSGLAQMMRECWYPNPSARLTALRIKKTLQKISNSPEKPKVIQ
Sequence of MUSK (human) (O15146 whole entry, looked up): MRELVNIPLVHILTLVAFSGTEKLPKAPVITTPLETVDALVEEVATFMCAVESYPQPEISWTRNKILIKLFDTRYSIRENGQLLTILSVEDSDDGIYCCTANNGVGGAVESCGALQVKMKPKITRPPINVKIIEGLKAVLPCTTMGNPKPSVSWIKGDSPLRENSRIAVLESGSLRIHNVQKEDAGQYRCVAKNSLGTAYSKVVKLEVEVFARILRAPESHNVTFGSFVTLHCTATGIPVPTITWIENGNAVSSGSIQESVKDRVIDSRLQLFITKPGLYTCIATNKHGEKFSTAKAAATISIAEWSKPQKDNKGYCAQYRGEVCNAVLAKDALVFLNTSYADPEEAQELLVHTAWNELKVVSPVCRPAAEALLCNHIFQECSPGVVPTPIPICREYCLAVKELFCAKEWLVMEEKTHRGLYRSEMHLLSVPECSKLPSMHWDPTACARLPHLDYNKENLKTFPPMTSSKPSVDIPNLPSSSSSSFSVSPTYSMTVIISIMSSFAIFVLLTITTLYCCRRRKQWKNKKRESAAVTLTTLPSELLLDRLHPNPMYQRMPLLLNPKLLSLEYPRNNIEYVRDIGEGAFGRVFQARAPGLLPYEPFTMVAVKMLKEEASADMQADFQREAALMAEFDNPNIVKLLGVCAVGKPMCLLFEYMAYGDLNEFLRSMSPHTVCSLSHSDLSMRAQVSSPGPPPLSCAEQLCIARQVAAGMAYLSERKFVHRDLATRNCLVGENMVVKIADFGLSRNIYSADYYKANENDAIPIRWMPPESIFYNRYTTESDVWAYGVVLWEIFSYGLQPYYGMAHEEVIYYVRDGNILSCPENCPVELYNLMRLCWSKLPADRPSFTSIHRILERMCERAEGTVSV
Sequence of EPHA3 (human) (P29320 whole entry, looked up): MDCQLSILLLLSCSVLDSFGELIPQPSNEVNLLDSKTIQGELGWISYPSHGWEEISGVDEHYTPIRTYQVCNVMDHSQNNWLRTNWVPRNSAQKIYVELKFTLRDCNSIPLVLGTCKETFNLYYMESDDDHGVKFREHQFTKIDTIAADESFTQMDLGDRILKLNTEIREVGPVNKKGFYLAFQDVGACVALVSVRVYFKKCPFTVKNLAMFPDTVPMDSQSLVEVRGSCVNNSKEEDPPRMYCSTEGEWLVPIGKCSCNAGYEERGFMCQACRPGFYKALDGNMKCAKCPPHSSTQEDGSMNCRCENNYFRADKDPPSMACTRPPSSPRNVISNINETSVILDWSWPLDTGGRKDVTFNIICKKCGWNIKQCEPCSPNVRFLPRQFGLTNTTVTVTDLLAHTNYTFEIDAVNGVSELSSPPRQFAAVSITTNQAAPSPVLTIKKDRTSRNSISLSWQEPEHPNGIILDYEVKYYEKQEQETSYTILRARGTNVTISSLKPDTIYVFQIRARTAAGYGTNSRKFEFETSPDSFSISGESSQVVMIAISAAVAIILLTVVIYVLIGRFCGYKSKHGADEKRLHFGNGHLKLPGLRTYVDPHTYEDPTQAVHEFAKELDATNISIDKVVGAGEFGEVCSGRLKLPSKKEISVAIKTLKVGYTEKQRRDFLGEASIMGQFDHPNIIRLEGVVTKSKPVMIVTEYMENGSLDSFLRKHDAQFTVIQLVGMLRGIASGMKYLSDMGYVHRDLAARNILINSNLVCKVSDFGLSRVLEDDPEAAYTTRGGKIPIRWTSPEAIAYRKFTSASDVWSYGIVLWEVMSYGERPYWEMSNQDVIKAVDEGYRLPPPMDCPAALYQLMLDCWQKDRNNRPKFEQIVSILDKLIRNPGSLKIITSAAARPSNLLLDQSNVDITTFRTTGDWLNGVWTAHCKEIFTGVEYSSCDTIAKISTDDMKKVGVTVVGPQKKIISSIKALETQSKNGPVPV
Sequence of MAP2K1 (human) (Q02750 whole entry, looked up): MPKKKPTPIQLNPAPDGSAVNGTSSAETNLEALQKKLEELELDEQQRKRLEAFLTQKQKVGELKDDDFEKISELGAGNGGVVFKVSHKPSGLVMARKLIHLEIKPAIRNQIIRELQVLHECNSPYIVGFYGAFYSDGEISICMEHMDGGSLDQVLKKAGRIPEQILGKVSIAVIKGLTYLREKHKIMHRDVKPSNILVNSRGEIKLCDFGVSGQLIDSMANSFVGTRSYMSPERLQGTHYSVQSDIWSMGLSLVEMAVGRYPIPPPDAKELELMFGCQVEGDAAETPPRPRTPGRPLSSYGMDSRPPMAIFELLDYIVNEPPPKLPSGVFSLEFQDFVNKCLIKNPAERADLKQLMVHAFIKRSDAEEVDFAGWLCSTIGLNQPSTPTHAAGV
Sequence of ANKK1 (human) (Q8NFD2 whole entry, looked up): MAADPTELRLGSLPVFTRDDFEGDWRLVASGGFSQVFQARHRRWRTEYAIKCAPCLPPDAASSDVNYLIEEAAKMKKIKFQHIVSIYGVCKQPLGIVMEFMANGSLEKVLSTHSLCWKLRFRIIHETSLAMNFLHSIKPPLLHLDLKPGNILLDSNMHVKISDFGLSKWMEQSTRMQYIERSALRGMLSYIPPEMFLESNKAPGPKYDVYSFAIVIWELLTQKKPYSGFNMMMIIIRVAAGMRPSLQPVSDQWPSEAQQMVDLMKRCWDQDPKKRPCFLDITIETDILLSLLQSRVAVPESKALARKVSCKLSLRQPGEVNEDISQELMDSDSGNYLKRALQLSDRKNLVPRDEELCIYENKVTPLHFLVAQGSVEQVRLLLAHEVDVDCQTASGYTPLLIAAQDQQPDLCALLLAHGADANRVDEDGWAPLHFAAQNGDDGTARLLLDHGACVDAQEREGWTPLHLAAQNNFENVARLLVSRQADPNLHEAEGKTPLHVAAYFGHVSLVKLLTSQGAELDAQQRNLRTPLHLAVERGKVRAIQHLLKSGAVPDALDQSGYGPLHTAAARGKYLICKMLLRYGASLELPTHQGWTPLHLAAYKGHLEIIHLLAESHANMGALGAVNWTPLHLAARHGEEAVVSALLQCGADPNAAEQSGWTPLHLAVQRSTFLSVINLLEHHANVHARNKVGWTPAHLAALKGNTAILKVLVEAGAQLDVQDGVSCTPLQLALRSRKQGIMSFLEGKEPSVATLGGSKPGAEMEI
Sequence of MAP2K4 (human) (P45985 whole entry, looked up): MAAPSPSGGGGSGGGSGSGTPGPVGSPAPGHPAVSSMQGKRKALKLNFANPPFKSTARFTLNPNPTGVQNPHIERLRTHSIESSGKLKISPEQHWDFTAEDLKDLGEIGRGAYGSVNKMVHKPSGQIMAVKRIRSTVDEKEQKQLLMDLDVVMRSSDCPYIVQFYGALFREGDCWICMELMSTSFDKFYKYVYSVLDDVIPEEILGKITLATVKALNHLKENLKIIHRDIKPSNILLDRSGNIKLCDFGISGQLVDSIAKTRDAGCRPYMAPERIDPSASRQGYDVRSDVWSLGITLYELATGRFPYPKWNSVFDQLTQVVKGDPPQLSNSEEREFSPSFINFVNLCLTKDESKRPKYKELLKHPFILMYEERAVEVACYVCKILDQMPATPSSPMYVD
Sequence of CDK5 (human) (Q00535 whole entry, looked up): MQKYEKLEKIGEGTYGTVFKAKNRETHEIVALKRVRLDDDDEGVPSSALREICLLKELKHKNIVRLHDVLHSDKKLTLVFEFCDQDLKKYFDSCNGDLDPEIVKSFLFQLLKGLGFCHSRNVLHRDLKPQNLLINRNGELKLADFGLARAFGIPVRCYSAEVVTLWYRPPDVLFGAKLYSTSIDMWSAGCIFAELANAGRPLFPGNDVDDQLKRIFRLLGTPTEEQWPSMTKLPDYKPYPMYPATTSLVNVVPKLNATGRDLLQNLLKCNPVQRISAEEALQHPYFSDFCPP
Sequence of PIM2 (human) (Q9P1W9 whole entry, looked up): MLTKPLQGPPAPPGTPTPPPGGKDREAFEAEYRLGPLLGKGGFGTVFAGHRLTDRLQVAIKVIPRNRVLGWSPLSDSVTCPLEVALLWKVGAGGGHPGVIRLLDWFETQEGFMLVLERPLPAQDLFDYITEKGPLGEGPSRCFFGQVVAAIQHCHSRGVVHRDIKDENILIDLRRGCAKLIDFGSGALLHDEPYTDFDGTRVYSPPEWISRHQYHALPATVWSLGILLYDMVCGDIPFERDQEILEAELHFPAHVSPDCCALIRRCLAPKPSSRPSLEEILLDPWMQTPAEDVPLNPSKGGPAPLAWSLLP
Sequence of CSNK1E (human) (P49674 whole entry, looked up): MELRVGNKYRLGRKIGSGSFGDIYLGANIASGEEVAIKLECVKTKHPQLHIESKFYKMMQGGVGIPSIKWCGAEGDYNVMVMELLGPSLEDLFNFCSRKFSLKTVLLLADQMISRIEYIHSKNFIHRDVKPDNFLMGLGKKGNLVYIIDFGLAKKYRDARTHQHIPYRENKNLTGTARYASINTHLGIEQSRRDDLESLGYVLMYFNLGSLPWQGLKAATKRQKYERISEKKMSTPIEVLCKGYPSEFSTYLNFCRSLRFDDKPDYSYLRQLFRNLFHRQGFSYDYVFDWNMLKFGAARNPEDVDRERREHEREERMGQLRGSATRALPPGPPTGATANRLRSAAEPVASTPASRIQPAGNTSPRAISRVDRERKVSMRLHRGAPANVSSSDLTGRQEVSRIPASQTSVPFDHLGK

Structure (SMILES) | kinase still bound, per cent of control [1] [%] | kinase still bound, per cent of control [2] [%] | kinase still bound, per cent of control [4] [%] | kinase still bound, per cent of control [5] [%] | kinase still bound, per cent of control [6] [%] | kinase still bound, per cent of control [8] [%] | kinase still bound, per cent of control [9] [%] | kinase still bound, per cent of control [10] [%] | kinase still bound, per cent of control [11] [%] | kinase still bound, per cent of control [12] [%] | kinase still bound, per cent of control [13] [%] | kinase still bound, per cent of control [14] [%] | per cent of control [15] [%] | kinase still bound, per cent of control [16] [%] | kinase still bound, per cent of control [17] [%] | kinase still bound, per cent of control [18] [%] | kinase still bound, per cent of control [20] [%] | per cent of control [21] [%] | kinase still bound, per cent of control [22] [%] | kinase still bound, per cent of control [23] [%] | also measured
CCC(=O)N1CCN(c2ccc(-n3c(=O)ccc4cnc5ccc(-c6cnc7ccccc7c6)cc5c43)cc2C(F)(F)F)CC1 | 86 | 78 | 59 | 59 | 100 | 100 | 65 | 42 | 100 | 80 | 27 | 53 | 87 | 100 | 83 | 99 | 99 | 6.2 | 57 | 23 | kinase still bound, per cent of control [3]: 100%; kinase still bound, per cent of control [7]: 51%; kinase still bound, per cent of control [19]: 100%; kinase still bound, per cent of control [24]: 70%; kinase still bound, per cent of control [25]: 93%; kinase still bound, per cent of control [26]: 93%; per cent of control [27]: 100%; kinase still bound, per cent of control [28]: 89%; kinase still bound, per cent of control [29]: 62%; kinase still bound, per cent of control [30]: 100%; kinase still bound, per cent of control [31]: 50%; kinase still bound, per cent of control [32]: 100%; kinase still bound, per cent of control [33]: 83%; kinase still bound, per cent of control [34]: 100%; kinase still bound, per cent of control [35]: 18%; kinase still bound, per cent of control [36]: 100%; kinase still bound, per cent of control [37]: 30%; kinase still bound, per cent of control [38]: 81%; kinase still bound, per cent of control [39]: 46%; kinase still bound, per cent of control [40]: 94%
CC(C)n1nc(-c2cc3cc(O)ccc3[nH]2)c2c(N)ncnc21 | 0.9 | 100 | 0.1 | 66 | 100 | 0.25 | 86 | 2 | 33 | 13 | 12 | 100 | 57 | 79 | 6.7 | 2.6 | 28 | 69 | 6.2 | 9.4 | kinase still bound, per cent of control [41]: 4.4%; kinase still bound, per cent of control [24]: 1.5%; kinase still bound, per cent of control [25]: 8.8%; kinase still bound, per cent of control [26]: 87%; per cent of control [27]: 100%; kinase still bound, per cent of control [28]: 61%; kinase still bound, per cent of control [29]: 0.6%; kinase still bound, per cent of control [30]: 90%; kinase still bound, per cent of control [31]: 60%; kinase still bound, per cent of control [32]: 100%; kinase still bound, per cent of control [33]: 43%; kinase still bound, per cent of control [34]: 100%; kinase still bound, per cent of control [36]: 100%; kinase still bound, per cent of control [37]: 3.4%; kinase still bound, per cent of control [39]: 21%; kinase still bound, per cent of control [40]: 16%
